Measurements from BindingDB's records for doi:10.1021/jm00348a025 (1982).

Columns and labels:
[1] = target: Alkaline phosphatase, tissue-nonspecific isozyme (Homo sapiens) (UniProt P05186); experiment: Concentration required for 50% inhibition of human leukocyte alkaline phosphatase in the presence of 10 mM p-nitrophenyl phosphate as substrate
[2] = target: Alkaline phosphatase, tissue-nonspecific isozyme (Homo sapiens) (UniProt P05186); experiment: as above; remark: listed apart in the source

Chain of Alkaline phosphatase, tissue-nonspecific isozyme (Homo sapiens) (P05186 whole entry, looked up): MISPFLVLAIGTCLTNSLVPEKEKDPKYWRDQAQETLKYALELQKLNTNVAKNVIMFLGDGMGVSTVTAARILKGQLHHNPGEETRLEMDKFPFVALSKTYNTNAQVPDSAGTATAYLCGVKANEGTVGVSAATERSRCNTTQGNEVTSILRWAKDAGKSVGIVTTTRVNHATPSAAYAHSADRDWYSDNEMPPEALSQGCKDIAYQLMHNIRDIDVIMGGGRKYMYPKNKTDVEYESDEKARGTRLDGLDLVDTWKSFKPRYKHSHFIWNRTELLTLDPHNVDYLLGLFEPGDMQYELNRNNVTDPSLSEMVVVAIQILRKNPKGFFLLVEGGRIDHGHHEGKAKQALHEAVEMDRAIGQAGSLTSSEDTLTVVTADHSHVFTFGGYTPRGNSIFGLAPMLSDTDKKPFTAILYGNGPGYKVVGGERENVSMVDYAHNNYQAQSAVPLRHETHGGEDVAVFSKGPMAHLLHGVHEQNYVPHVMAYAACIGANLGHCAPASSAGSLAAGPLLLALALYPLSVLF

| IC50 [1] | IC50 [2] | Structure (SMILES) |
| --- | --- | --- |
| 1750 µM | – | CCCOc1ccccc1-c1nc2nn[nH]c2c(=O)[nH]1 [5-(2-propoxyphenyl)-2H,3H,7H-[1,2,3]triazolo[4,5-d]pyrimidin-7-one] |
| 340 µM | – | O=C(O)c1ccc2nc3ccc(O)cc3c(=O)n2c1 |
| – | 970 µM | CCCCc1cc2c(O)cc(C(=O)O)nc2c2c(O)cc(C(=O)O)nc12 |
| – | 9680 µM | O=C(O)c1cc(=O)c2c(OCC(O)COc3cccc4oc(C(=O)O)cc(=O)c34)cccc2o1 [Crolom] |
